Experimental data reported in patent publication US20110046071A1 (TEL HASHOMER MEDICAL RESEARCH INFRASTRUCTURE AND SERVICES …, priority 2008, published 2011).
Entries after “also recorded” stand apart in the source; their conditions may differ.

Key:
[1] = cited from earlier work
[2] = tested on: cAMP levels in MCF-7 cells; assay: cAMP radioimmunoassay; format: cell-based; conditions: 5 minutes; for cAMP accumulation / production: exendin-4 5 nM, GLP-1 5 nM, exendin (9-39) 100 nM, 2′5′-dideoxy adenosine 30 μM (60 minutes preincubation)
Protocol: cAMP measurements: For cAMP measurement, a radioimmunoassay was carried out as follows: cells and 100 μl media were snap frozen in liquid nitrogen, thawed and diluted in buffer acetate. […] Bound cAMP was precipitated and counted in a γ-counter, and concentration determined using a standard curve and positive controls.

[3] = in vivo; cited from earlier work
MCF-7 cells [4] = conditions: human, 72 h, 50 nM
Protocol: Doxorubicin is a commonly used chemotherapy against breast cancer.
Media and treatments were changed once after 48 hrs. After 72 hrs of incubation at 37° C., 5% CO2, the cells were cultured for four hours with 10% MIT reagent (5 mg/ml; Sigma-Aldrich). The medium was aspirated, and the cells were dissolved by dimethyl sulfoxide (DMSO). Absorbance of the formazan product was measured by an enzyme-linked immunosorbent assay reader.

[5] = tested on: CREB, p38, ERK1/2, AKT, AMPK in MCF-7 cells; assay: Western blot of signaling pathways (CREB, p38, ERK1/2, AKT, AMPK, ACC); format: cell-based; conditions: for AMPK and ACC phosphorylation (AMP kinase activity): comparable to the AMPK activator AICAR
Protocol: 50 μg protein extracts were loaded on 10% polyacrylamide gels, separated electrophoretically and blotted from the gel onto nitrocellulose membrane (Schleicher & Schuell Bioscience GmbH, Dassel, Del.). The membranes were then immunoblotted with the indicated antibodies. Band intensities were quantified using ImageJ software. Colony assays: 200 cells/well were plated on 12-well plate. […] Medium was replaced twice a week and at day 14, the cells were stained using crystal violet. Quantification of the results was performed using ImageJ.

MCF-7 cells [6] = assay: cells; format: cell-based; conditions: Homo sapiens, MCF7, read-out: inhibition of cell viability
Source text: Human embryonic kidney HEK-293 and primary liver cells were used as controls.
Medium was replaced once after 48 hrs.

For N[C@@H](CC(=O)N1CCn2c(nnc2C(F)(F)F)C1)Cc1cc(F)c(F)cc1F [Sitagliptin, (2R)-4-oxo-4-[3-(trifluoromethyl)-5,6-dihydro[1,2,4]triazolo[4,3-a]pyrazin-7(8H)-yl]-1-(2,4,5-trifluorophenyl)butan-2-amine], the “eliminated without being metabolized” value ([1]; human subjects, via the kidney) is listed as 74% and the half life ([1]; in vivo) is listed as 8 to 12 h.
For C[C@H]1O[C@@H](n2cnc3c(N)ncnc32)C[C@@H]1O [ddA, 2′5′ dideoxy-adenosine], the “cAMP accumulation / production” value [2] was “inhibited”.
For COc1cccc2c1C(=O)c1c(O)c3c(c(O)c1C2=O)C[C@@](O)(C(=O)CO)C[C@@H]3O[C@H]1C[C@H](N)[C@H](O)[C@H](C)O1 [doxorubicin], the “crossing of the blood-brain barrier” value [3] is listed as “does not cross the blood-brain barrier” and the reduction of viability (MCF-7 cells [4]) is listed as 20%.
For exendin(9-39), the “p38 MAPK activation / phosphorylation” value [5] was “enhanced”, the CREB phosphorylation ([5]; 15 minutes) was “enhanced” and the “AMPK and ACC phosphorylation (AMP kinase activity)” value [5] was “phosphorylated”. For the same compound, the “cAMP accumulation / production” value [2] was “increased cAMP accumulation similarly to exendin-4 and GLP-1”.
For Glucagon-like peptide 1 [GLP-1], the “p38 MAPK activation / phosphorylation” value [5] was “induced; also recorded: activated”, the CREB phosphorylation ([5]; 15 minutes) was “induced; also recorded: CREB phosphorylation” and the “ERK1/2 and AKT pathways” value ([5]; 15 minutes) was “Neither GLP-1 nor exendin-4 affected; also recorded: neither ERK1/2 nor AKT were affected”. The “AMPK and ACC phosphorylation (AMP kinase activity)” value [5] was “phosphorylated”, the “crossing of the blood-brain barrier” value [3] was “able to cross the blood-brain barrier” and the “cAMP accumulation / production” value [2] was “elevated; also recorded: similar”.
For C=C[C@@]1(C)CC(=O)[C@]2(O)[C@@]3(C)[C@@H](O)CCC(C)(C)[C@@H]3[C@H](O)[C@H](OC(C)=O)[C@@]2(C)O1 [forskolin], the cytotoxicity at 1 µM (MCF-7 cells [6]) was 60% and the “elevation of cAMP levels” value ([2]; forskolin 1 μM) was 6 fold.
